Data reported in US11590110B2, “Compositions and methods for reactivating latent immunodeficiency virus using a GSK-3 inhibitor” (priority 2017, dated 2023).
Entries after “also recorded” stand apart in the source; their conditions may differ.

Legend:
[1] = tested on: patient-derived CD4+ T cells; assay: Example 2: viability of patient-derived CD4+ T cells (Zombie Violet, flow cytometry); type: cell-based, human; details: 48 h incubation
Experimental: Following treatment with Tideglusib, the CD4^+ T cells were spun down and stained with the cell-death marker Zombie Violet (BioLegend). Briefly, cells were harvested 48 hours after LRA treatment, incubated with the Zombie dye for 15 minutes at room temperature, than washed and fixed with 1% PFA for 30 minutes; then washed again and analyzed via flow cytometer. Percentage of live (Zombie negative (−)) T Cells (CD3+) was normalized to the DMSO-treated control (DMSO or “untreated”=1).

[2] = tested on: patient-derived CD4+ T cells; assay: Example 3: expression of activation markers CD69 and CD25 in patient-derived CD4+ T cells; type: cell-based, human; details: 48 hours; anti-CD3/CD28 beads = 100%
Experimental: Following treatment with Tideglusib, the CD4^+ T cells were spun down and stained with antibodies for the activation markers CD69 and CD25. Briefly, cells were harvested 48 hours after Tideglusib treatment, incubated with the antibodies for 15 minutes at room temperature, than washed and fixed with 1% PFA for 30 minutes; then washed again and analyzed via flow cytometer.

CD4+ T cells [3] = assay: Example 5: CD4+ T cell viability, Cell Titer Blue assay; type: cell-based, human; details: 48 hours; SB-216763 and tideglusib 10/100/1000 nM; bryostatin-1 10 nM
Experimental: 25 μl from each well/treatment were incubated with Cell Titer Blue reagent (Promega) for 3 to 4 hours at 37° C. The assay is based on the ability of living cells to convert a redox dye (resazurin) into a fluorescent end product (resorufin). Colorimetric analysis of treated cells was done with a Perkin Elmer EnSpire 2300 Multimode plate reader set to detect fluorescence (Ex:579 nm/Em:584 nm).

CD4+ T cells [4] = assay: Example 5: basal and compensatory glycolysis, Seahorse glycolytic rate assay; type: cell-based, human; details: 1 μM; 24 hours
Experimental: ECAR was determined using the Seahorse SF Glycolytic Rate Assay Kit (Agilent, 103344-100) and a Seahorse XF96 Extracellular Flux Analyzer (Seahorse Bioscience). Resting (2×10^5 per well) were seeded onto Cell-Tak-coated wells (354240; Corning) in buffered Seahorse XF RPMI medium (Agilent, 103576-100) supplemented with 10 mM glucose, 2 mM L-glutamine, 1 mM pyruvate and 5 mM HEPES (pH 7.4). Measurements were obtained under basal conditions and after adding 0.5 μM rotenone/antimycin A (103015-100; Seahorse Bioscience), and 2-deoxy-d-glucose (2-DG) at a final well concentration of 50 mM (Agilent Technologies). Basal glycolysis and Proton Efflux Rate (PER) were calculated according to. Lactate measurements were detected using the Cayman L-Lactate Assay Kit (Cayman Chemical, 70010) In brief, 24 hours post treatment, supernatant from 200.000 primary resting and activated CD4^+ T cells was harvested and measured according to the manufacturer's recommendation.

[5] = tested on: HIV-specific CD8+ T cells; assay: Example 5: granzyme B cytotoxicity assay and infected CD4+ T-cell elimination (ICE); type: cell-based, human; details: 1 μM for 6 days
Experimental: PBMCs were co-incubated with HIVSF162-infected autologous CD4^+ T-cell targets (E:T 25:1)+/−tideglusib at a final concentration of […] in 96 deep (1 mL) well plates for 6 days. As before, cultured day 6 cells were then labeled with immuno-magnetic beads (CD8 T-cell Isolation Kit II, Miltenyi Biotec) prior to negative selection of CD8^+ T-cells by magnetic automated cell sorting (ref Migueles et al., 2008, 2009). Cytotoxic responses were measured against LIVE/DEAD Fixable Violet Stain (Molecular Probes, Invitrogen Detection Technologies, Eugene, Oreg., USA)-labeled HIVSF162-infected or uninfected autologous CD4^+ T-cell targets in assays examining GrB target cell activity and infected CD4^+ T-cell elimination (ICE) as previously reported (ref Migueles et al., 2008, 2009). Cells were analyzed on a FACSAria multi-laser cytometer (Becton-Dickinson) with FACSDiva software. Gates were drawn on labeled CD4^+ T-cell targets and 5,000-15,000 events were collected. Color compensations were performed using single-stained samples for each of the fluorochromes used. Data were analyzed using FlowJo software (TreeStar, San Carlos, Calif.).

[6] = tested on: latent HIV in CD4+ T cells from HIV-1-infected individuals on suppressive ART; assay: Example 1: reactivation of latent HIV, viral mRNA in culture supernatant by ddPCR; details: 48 hours
[7] = tested on: latent HIV in CD4+ T cells of HIV-infected patients on suppressive anti-retroviral therapy; assay: Example 7: reversal of HIV latency in patient CD4+ T cells, extracellular viral RNA by digital droplet PCR

O=c1sn(-c2cccc3ccccc23)c(=O)n1Cc1ccccc1 [Tideglusib, 4-benzyl-2-(naphthalen-1-yl)-1,2,4-thiadiazolidine-3,5-dione]
percentage of viable CD4+ T cells vs untreated control [1]: Substantially all of the cells remained viable | activation markers CD69 and CD25 on the surface of CD4+ T cells [2]: not up-regulated | CD4+ T-cell viability (CD4+ T cells [3]): does not reduce viability | basal glycolysis, mean value (CD4+ T cells [4]): 17.43 pmol/min | compensatory glycolysis, response to Rot/AA (CD4+ T cells [4]): did not result in an increase | CD8+ T-mediated infected CD4+ T-cell elimination (ICE) ([5]; 1 hour with infected CD4+ T targets): did not alter production of granzyme B (GrB) or prevent CD8^+ T-mediated infected CD4^+ T-cell elimination (ICE) | production of granzyme B (GrB) ([5]; PBMCs of HIV-positive progressors): did not alter production of granzyme B | induction of viral mRNA in culture supernatant, highest single donor ([6]; 1 μM, one donor): up to 60 fold | average increase in viral mRNA released into the culture supernatant compared to untreated control ([6]; 1 μM, vs DMSO-treated cells): 30 fold | reactivation of latent HIV from CD4+ T cells upon ex vivo treatment [6]: high level of reactivation; also recorded: even greater than that demonstrated with SB-216763 | latency reversing activity, in words ([7]; at equivalent doses): comparable activity | induction of latent virus production (virus-associated RNA over DMSO-treated control) ([7]; highest concentration): ~40 fold | subjects that did not respond ([7]; highest dose): 1 of 8
